Test results taken from patent US7825260B2, “Aminopropanol derivatives as sphingosine-1-phosphate receptor modulators” (Novartis AG, priority 2003, dated 2010).

Tested on: peripheral blood lymphocytes
Assay: In vivo: Blood Lymphocyte Depletion
Conditions: rats, p.o., after 6 h
Method: B. In vivo: Blood Lymphocyte Depletion
A compound of formula I or the vehicle is administered orally by gavage to rats. Tail blood for hematological monitoring is obtained on day −1 to give the baseline individual values, and at 2, 6, 24, 48 and 72 hours after application. In this assay, the compounds of formula I deplete peripheral blood lymphocytes when administered at a dose of 0.03 to 3 mg/kg. For example, following results are obtained: depletion of peripheral blood lymphocytes by more than 50%.

Row | SMILES | dose giving depletion of peripheral blood lymphocytes by more than 50%
1 | CCOc1cccc(-c2nc3cc(CC[C@@](C)(N)CO)ccc3o2)c1 [Example 26, (R)-2-Amino-4-[2-(3-ethoxy-phenyl)-benzoxazol-5-yl]-2-methyl-butan-1-ol] | 0.03 mg/kg p.o. after 6 h
2 | C[C@](N)(CO)CCc1ccc2oc(-c3ccccc3)cc2c1 [Example 37, (R)-2-Amino-2-methyl-4-(2-phenyl-benzofuran-5-yl)-butan-1-ol] | 0.40 mg/kg p.o. after 6 h
3 | C[C@](N)(CO)CCc1ccc2oc(-c3ccc4c(c3)OCO4)nc2c1 [Example 25, (R)-2-Amino-4-(2-benzo[1,3]dioxol-5-yl-benzoxazol-5-yl)-2-methyl-butan-1-ol] | 0.06 mg/kg p.o. after 6 h
4 | CCCCCOc1ccc2cc(CC[C@@](C)(N)CO)ccc2c1 [Example 1, (R)-2-amino-2-methyl-4-(6-pentyloxynaphthalen-2-yl)butan-1-ol] | 0.02 mg/kg p.o. after 6 h,

Same assay, conditions: rats, p.o., after 24 h

Row | SMILES | dose giving depletion of peripheral blood lymphocytes by more than 50%
5 | CCCCCOc1ccc2cc(CC[C@@](C)(N)CO)ccc2c1 [Example 1, (R)-2-amino-2-methyl-4-(6-pentyloxynaphthalen-2-yl)butan-1-ol] | 0.3 mg/kg p.o. after 24 h,

Same assay, conditions: rats, p.o., after 48 h

Row | SMILES | dose giving depletion of peripheral blood lymphocytes by more than 50%
6 | CCOc1cccc(-c2nc3cc(CC[C@@](C)(N)CO)ccc3o2)c1 [Example 26, (R)-2-Amino-4-[2-(3-ethoxy-phenyl)-benzoxazol-5-yl]-2-methyl-butan-1-ol] | 0.2 mg/kg after 48 h
7 | C[C@](N)(CO)CCc1ccc2oc(-c3ccc4c(c3)OCO4)nc2c1 [Example 25, (R)-2-Amino-4-(2-benzo[1,3]dioxol-5-yl-benzoxazol-5-yl)-2-methyl-butan-1-ol] | 0.3 mg/kg after 48 h
8 | CCCCCOc1ccc2cc(CC[C@@](C)(N)CO)ccc2c1 [Example 1, (R)-2-amino-2-methyl-4-(6-pentyloxynaphthalen-2-yl)butan-1-ol] | >1 mg/kg after 48 h

Molecular target: T1, human S1P receptor EDG-6 (S1P4) (Homo sapiens, UniProt O95977)
T1 construct: expressed in transfected cells
T1 sequence (O95977 1-384): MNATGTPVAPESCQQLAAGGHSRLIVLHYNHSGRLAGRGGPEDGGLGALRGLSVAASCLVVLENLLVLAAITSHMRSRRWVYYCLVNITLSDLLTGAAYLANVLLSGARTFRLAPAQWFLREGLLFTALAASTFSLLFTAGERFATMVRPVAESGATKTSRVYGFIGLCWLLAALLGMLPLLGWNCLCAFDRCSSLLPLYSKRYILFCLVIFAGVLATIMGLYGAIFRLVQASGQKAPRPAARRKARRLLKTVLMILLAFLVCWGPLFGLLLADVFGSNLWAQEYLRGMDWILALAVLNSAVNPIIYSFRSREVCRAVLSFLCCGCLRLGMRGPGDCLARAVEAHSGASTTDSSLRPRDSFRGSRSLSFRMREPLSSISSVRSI
Assay: S1P receptor profiling, GTP[γ-35S] binding SPA, S1P4
Type: biochemical
Conditions: Agon = agonist
Method: (§1) Sphingosine-1-phosphate (S1P) Receptor Profiling
(§2) Agonist activities of compounds are tested on the human S1P receptors EDG-1 (S1P1), EDG-3 (S1P3), EDG-5 (S1P2), EDG-6 (S1P4) and EDG-8 (S1P5). […] The assay technology used is SPA (scintillation proximity based assay). Briefly, DMSO dissolved compounds are serially diluted and added to SPA-bead (Amersham-Pharmacia) immobilised S1P receptor expressing membrane protein (10-20 μg/well) in the presence of 50 mM Hepes, 100 mM NaCl, 10 mM MgCl2, 10 μM GDP, 0.1% fat free BSA and 0.2 nM GTP [γ-^35S] (1200 Ci/mmol). After incubation in 96 well microtiterplates at RT for 120 min, unbound GTP [γ-^35S] is separated by a centrifugation step. Luminescence of SPA beads triggered by membrane bound GTP [γ-^35S] is quantified with a TOPcount plate reader (Packard). EC50s are calculated using standard curve fitting software. In this assay, the compounds of formula I have a binding affinity to S1P1 receptor <50 nM.

Row | SMILES | S1P4 mode of action
9 | CCCCCOc1ccc2cc(CC[C@@](C)(N)COP(=O)(O)O)ccc2c1 [Example 12, Phosphoric acid mono-[(R)-2-amino-2-methyl-4-(6-pentyloxynaphthalen-2-yl)but-1-yl]ester] | Agon
10 | C[C@@](N)(CCc1ccc2oc(-c3ccccc3)cc2c1)COP(=O)(O)O [Example 49, Phosphoric acid mono-[(R)-2-amino-2-methyl-4-(2-phenyl-benzofuran-5-yl)-butyl]ester] | Agon
11 | CCCCCc1nc2cc(CC[C@@](C)(N)COP(=O)(O)O)ccc2o1 [Example 42, Phosphoric acid mono-[(R)-2-amino-2-methyl-4-(2-pentyl-benzoxazol-5-yl)-butyl]ester] | Agon
12 | C[C@@](N)(CCc1ccc2cc(OCCCC(F)(F)C(F)(F)F)ccc2c1)COP(=O)(O)O [Example 13] | Agon
13 | CCCOc1ccc2cc(CC[C@@](C)(N)COP(=O)(O)O)ccc2c1 [Example 14] | Agon

Same assay, conditions: GTP[γ-35S] binding to membranes of transfected CHO or RH7777 cells

Row | SMILES | EC50
14 | CCCCCOc1ccc2cc(CC[C@@](C)(N)COP(=O)(O)O)ccc2c1 [Example 12, Phosphoric acid mono-[(R)-2-amino-2-methyl-4-(6-pentyloxynaphthalen-2-yl)but-1-yl]ester] | 0.4 nM
15 | C[C@@](N)(CCc1ccc2oc(-c3ccccc3)cc2c1)COP(=O)(O)O [Example 49, Phosphoric acid mono-[(R)-2-amino-2-methyl-4-(2-phenyl-benzofuran-5-yl)-butyl]ester] | 0.7 nM
16 | CCCCCc1nc2cc(CC[C@@](C)(N)COP(=O)(O)O)ccc2o1 [Example 42, Phosphoric acid mono-[(R)-2-amino-2-methyl-4-(2-pentyl-benzoxazol-5-yl)-butyl]ester] | 9 nM
17 | C[C@@](N)(CCc1ccc2cc(OCCCC(F)(F)C(F)(F)F)ccc2c1)COP(=O)(O)O [Example 13] | 1.2 nM
18 | CCCOc1ccc2cc(CC[C@@](C)(N)COP(=O)(O)O)ccc2c1 [Example 14] | 1 nM

Molecular target: T2, human S1P receptor EDG-3 (S1P3) (Homo sapiens, UniProt Q99500)
T2 construct: expressed in transfected cells
T2 sequence (Q99500 whole entry): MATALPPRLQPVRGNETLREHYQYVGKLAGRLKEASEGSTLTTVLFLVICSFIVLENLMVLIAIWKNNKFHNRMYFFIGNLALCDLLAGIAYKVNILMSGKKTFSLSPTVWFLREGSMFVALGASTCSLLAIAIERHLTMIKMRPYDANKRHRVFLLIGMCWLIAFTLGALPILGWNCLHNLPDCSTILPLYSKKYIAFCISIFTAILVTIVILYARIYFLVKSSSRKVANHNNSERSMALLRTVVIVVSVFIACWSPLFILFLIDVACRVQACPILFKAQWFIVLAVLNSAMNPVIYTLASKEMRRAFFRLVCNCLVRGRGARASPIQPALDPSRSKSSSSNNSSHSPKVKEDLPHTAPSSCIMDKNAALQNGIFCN
Assay: S1P receptor profiling, GTP[γ-35S] binding SPA, S1P3
Type: biochemical
Conditions: Agon = agonist
Method: as §1, §2

Row | SMILES | S1P3 mode of action
19 | CCCCCOc1ccc2cc(CC[C@@](C)(N)COP(=O)(O)O)ccc2c1 [Example 12, Phosphoric acid mono-[(R)-2-amino-2-methyl-4-(6-pentyloxynaphthalen-2-yl)but-1-yl]ester] | Agon
20 | C[C@@](N)(CCc1ccc2oc(-c3ccccc3)cc2c1)COP(=O)(O)O [Example 49, Phosphoric acid mono-[(R)-2-amino-2-methyl-4-(2-phenyl-benzofuran-5-yl)-butyl]ester] | Agon
21 | CCCCCc1nc2cc(CC[C@@](C)(N)COP(=O)(O)O)ccc2o1 [Example 42, Phosphoric acid mono-[(R)-2-amino-2-methyl-4-(2-pentyl-benzoxazol-5-yl)-butyl]ester] | Agon
22 | C[C@@](N)(CCc1ccc2cc(OCCCC(F)(F)C(F)(F)F)ccc2c1)COP(=O)(O)O [Example 13] | Agon
23 | CCCOc1ccc2cc(CC[C@@](C)(N)COP(=O)(O)O)ccc2c1 [Example 14] | inverse

Same assay, conditions: GTP[γ-35S] binding to membranes of transfected CHO or RH7777 cells

Row | SMILES | EC50
24 | CCCCCOc1ccc2cc(CC[C@@](C)(N)COP(=O)(O)O)ccc2c1 [Example 12, Phosphoric acid mono-[(R)-2-amino-2-methyl-4-(6-pentyloxynaphthalen-2-yl)but-1-yl]ester] | 8.4 nM
25 | C[C@@](N)(CCc1ccc2oc(-c3ccccc3)cc2c1)COP(=O)(O)O [Example 49, Phosphoric acid mono-[(R)-2-amino-2-methyl-4-(2-phenyl-benzofuran-5-yl)-butyl]ester] | 1180 nM
26 | CCCCCc1nc2cc(CC[C@@](C)(N)COP(=O)(O)O)ccc2o1 [Example 42, Phosphoric acid mono-[(R)-2-amino-2-methyl-4-(2-pentyl-benzoxazol-5-yl)-butyl]ester] | > 1000 nM
27 | C[C@@](N)(CCc1ccc2cc(OCCCC(F)(F)C(F)(F)F)ccc2c1)COP(=O)(O)O [Example 13] | 5.7 nM
28 | CCCOc1ccc2cc(CC[C@@](C)(N)COP(=O)(O)O)ccc2c1 [Example 14] | 47 nM

Molecular target: T3, human S1P receptor EDG-1 (S1P1) (Homo sapiens, UniProt P21453)
T3 construct: expressed in transfected cells
T3 sequence (P21453 whole entry): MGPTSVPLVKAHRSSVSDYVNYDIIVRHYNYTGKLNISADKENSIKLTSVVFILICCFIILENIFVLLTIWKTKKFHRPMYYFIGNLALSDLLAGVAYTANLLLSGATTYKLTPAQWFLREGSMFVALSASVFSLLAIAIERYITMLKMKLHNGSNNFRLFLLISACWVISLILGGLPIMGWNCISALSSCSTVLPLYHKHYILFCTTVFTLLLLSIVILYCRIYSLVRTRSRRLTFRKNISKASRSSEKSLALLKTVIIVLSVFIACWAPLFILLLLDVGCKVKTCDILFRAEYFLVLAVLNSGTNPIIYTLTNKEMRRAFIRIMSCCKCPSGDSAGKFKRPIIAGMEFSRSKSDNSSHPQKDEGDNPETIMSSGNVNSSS
Assay: S1P receptor profiling, GTP[γ-35S] binding SPA, S1P1
Type: biochemical
Conditions: Agon = agonist
Method: as §1, §2

Row | SMILES | S1P1 mode of action
29 | CCCCCOc1ccc2cc(CC[C@@](C)(N)COP(=O)(O)O)ccc2c1 [Example 12, Phosphoric acid mono-[(R)-2-amino-2-methyl-4-(6-pentyloxynaphthalen-2-yl)but-1-yl]ester] | Agon
30 | C[C@@](N)(CCc1ccc2oc(-c3ccccc3)cc2c1)COP(=O)(O)O [Example 49, Phosphoric acid mono-[(R)-2-amino-2-methyl-4-(2-phenyl-benzofuran-5-yl)-butyl]ester] | Agon
31 | CCCCCc1nc2cc(CC[C@@](C)(N)COP(=O)(O)O)ccc2o1 [Example 42, Phosphoric acid mono-[(R)-2-amino-2-methyl-4-(2-pentyl-benzoxazol-5-yl)-butyl]ester] | Agon
32 | C[C@@](N)(CCc1ccc2cc(OCCCC(F)(F)C(F)(F)F)ccc2c1)COP(=O)(O)O [Example 13] | Agon
33 | CCCOc1ccc2cc(CC[C@@](C)(N)COP(=O)(O)O)ccc2c1 [Example 14] | Agon

Same assay, conditions: GTP[γ-35S] binding to membranes of transfected CHO or RH7777 cells

Row | SMILES | EC50
34 | CCCCCOc1ccc2cc(CC[C@@](C)(N)COP(=O)(O)O)ccc2c1 [Example 12, Phosphoric acid mono-[(R)-2-amino-2-methyl-4-(6-pentyloxynaphthalen-2-yl)but-1-yl]ester] | 0.3 nM
35 | C[C@@](N)(CCc1ccc2oc(-c3ccccc3)cc2c1)COP(=O)(O)O [Example 49, Phosphoric acid mono-[(R)-2-amino-2-methyl-4-(2-phenyl-benzofuran-5-yl)-butyl]ester] | 1.6 nM
36 | CCCCCc1nc2cc(CC[C@@](C)(N)COP(=O)(O)O)ccc2o1 [Example 42, Phosphoric acid mono-[(R)-2-amino-2-methyl-4-(2-pentyl-benzoxazol-5-yl)-butyl]ester] | 17 nM
37 | C[C@@](N)(CCc1ccc2cc(OCCCC(F)(F)C(F)(F)F)ccc2c1)COP(=O)(O)O [Example 13] | 0.06 nM
38 | CCCOc1ccc2cc(CC[C@@](C)(N)COP(=O)(O)O)ccc2c1 [Example 14] | 2.8 nM

Tested on: not given
Assay: not given
Conditions: not given

Row | SMILES | melting point
39 | CCCCCOc1ccc2cc(CC[C@@](C)(N)COP(=O)(O)O)ccc2c1 [Example 12, Phosphoric acid mono-[(R)-2-amino-2-methyl-4-(6-pentyloxynaphthalen-2-yl)but-1-yl]ester] | 266 to 267 °C

Molecular target: T4, human S1P receptor EDG-8 (S1P5) (Homo sapiens, UniProt Q9H228)
T4 construct: expressed in transfected cells
T4 sequence (Q9H228 whole entry): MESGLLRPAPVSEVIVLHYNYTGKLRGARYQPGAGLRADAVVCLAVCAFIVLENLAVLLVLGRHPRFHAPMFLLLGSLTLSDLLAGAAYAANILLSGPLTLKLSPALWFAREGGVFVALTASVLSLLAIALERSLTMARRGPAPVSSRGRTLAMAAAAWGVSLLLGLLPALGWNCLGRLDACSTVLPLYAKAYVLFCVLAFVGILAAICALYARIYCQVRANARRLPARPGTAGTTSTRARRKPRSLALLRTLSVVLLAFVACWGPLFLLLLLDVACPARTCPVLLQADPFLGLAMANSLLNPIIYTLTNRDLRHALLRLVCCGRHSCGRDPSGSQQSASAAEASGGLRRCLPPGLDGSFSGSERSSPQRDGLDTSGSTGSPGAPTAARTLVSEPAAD
Assay: S1P receptor profiling, GTP[γ-35S] binding SPA, S1P5
Type: biochemical
Conditions: Agon = agonist
Method: as §1, §2

Row | SMILES | S1P5 mode of action
40 | CCCCCOc1ccc2cc(CC[C@@](C)(N)COP(=O)(O)O)ccc2c1 [Example 12, Phosphoric acid mono-[(R)-2-amino-2-methyl-4-(6-pentyloxynaphthalen-2-yl)but-1-yl]ester] | Agon
41 | C[C@@](N)(CCc1ccc2oc(-c3ccccc3)cc2c1)COP(=O)(O)O [Example 49, Phosphoric acid mono-[(R)-2-amino-2-methyl-4-(2-phenyl-benzofuran-5-yl)-butyl]ester] | Agon
42 | CCCCCc1nc2cc(CC[C@@](C)(N)COP(=O)(O)O)ccc2o1 [Example 42, Phosphoric acid mono-[(R)-2-amino-2-methyl-4-(2-pentyl-benzoxazol-5-yl)-butyl]ester] | Agon
43 | C[C@@](N)(CCc1ccc2cc(OCCCC(F)(F)C(F)(F)F)ccc2c1)COP(=O)(O)O [Example 13] | Agon
44 | CCCOc1ccc2cc(CC[C@@](C)(N)COP(=O)(O)O)ccc2c1 [Example 14] | Agon

Same assay, conditions: GTP[γ-35S] binding to membranes of transfected CHO or RH7777 cells

Row | SMILES | EC50
45 | CCCCCOc1ccc2cc(CC[C@@](C)(N)COP(=O)(O)O)ccc2c1 [Example 12, Phosphoric acid mono-[(R)-2-amino-2-methyl-4-(6-pentyloxynaphthalen-2-yl)but-1-yl]ester] | 0.1 nM
46 | C[C@@](N)(CCc1ccc2oc(-c3ccccc3)cc2c1)COP(=O)(O)O [Example 49, Phosphoric acid mono-[(R)-2-amino-2-methyl-4-(2-phenyl-benzofuran-5-yl)-butyl]ester] | 0.4 nM
47 | CCCCCc1nc2cc(CC[C@@](C)(N)COP(=O)(O)O)ccc2o1 [Example 42, Phosphoric acid mono-[(R)-2-amino-2-methyl-4-(2-pentyl-benzoxazol-5-yl)-butyl]ester] | 5 nM
48 | C[C@@](N)(CCc1ccc2cc(OCCCC(F)(F)C(F)(F)F)ccc2c1)COP(=O)(O)O [Example 13] | 0.4 nM
49 | CCCOc1ccc2cc(CC[C@@](C)(N)COP(=O)(O)O)ccc2c1 [Example 14] | 0.8 nM
